Assay results published in patent publication US5646316A, “Bile acid inhibitors of metalloproteinase enzymes” (OsteoArthritis Sciences, Inc., priority 1995, dated 1997).
Like-named read-outs stand apart in the source and are kept apart here.

Key:
[1] = tested on: bovine cartilage explants; test: Bovine Cartilage Explant Assay (35S-GAG release, rhIL-1α stimulated; tissue culture); assay type: cell-based; conditions: Bos taurus, read-out: percent inhibition of extracellular matrix damage, Tissue Culture
Description: A tissue culture assay was used to measure the ability of the compounds of the present invention to slow the degradation of the extracellular matrix by metalloproteinases. This assay measured the amount of ^35 S-glycosaminoglycan (^35 S-GAG) released from labeled bovine cartilage explants.
Knee joints from a 1 to 3 week old calf were obtained immediately after sacrifice from the Abattoir and then transported on ice. The intact joints were washed well with tap water and soaked in 50% (v/v) Povidine iodine solution, obtained from Burre National, Inc., Baltimore, Md. All subsequent steps were performed in a laminar flow tissue culture hood using standard sterile technique. The joint was immobilized in a shank holder and the joint capsule was cut open to expose the articular cartilage. Cartilage explant plugs, approximately 15 mg wet weight, were removed from the flat articulating surfaces in the lower-most region of the knee joint using a sterile steel cork-borer and collected in a 250 mL roller bottle containing about 100 mL fresh Delbecco's minimum essential medium (DMEM), obtained from Gibco BRC, Life Technologies, Gaithersburg, Md., containing 4.5 g/1 (D)-glucose and (L)-glutamine, without sodium pyruvate. The fresh media also contained enough Hepes buffer and sodium bicarbonate such that the pH was about 7.4. The media was then further supplemented just before use with 100 units Penicillin, 100 μg Streptomycin, and 50 μg (L)-ascorbic acid per mL of medium.
Once collected, the explant plugs were washed four times with 50 mL fresh DMEM. The plugs were then placed in the incubator for a minimum of 1 hour to equilibrate, before proceeding to make disks from the articulating surface of each plug. A 1 mm thick disk was sliced from individual plugs from the end that was the articulating surface of the joint. The plug was held steady in the sterile template (4 mm diameter×1.5 mm deep) using sterile forceps. A scalpel blade was used to carefully slice off the disk. Only the superficial articulating surface responded well in culture.
Individual disks obtained were transferred to a tissue culture flask containing about 100 mL fresh media. The flask containing the disks was placed in an incubator at 37° C. (with 5% CO2, 95% air) and allowed to equilibrate overnight and at least one additional day before labeling. When ready to label, the old media was replaced with 50 mL fresh media containing about 500 μCi ^35 S-Sodium Sulfate. The plugs were labeled in bulk for about 48 hours. The next morning, the "hot" media was removed and replaced with fresh "cold" media. The disks were again allowed to equilibrate overnight before being used for actual experiments.
The media in which the disks were stored was changed immediately prior to performing the assay. The disks were then returned to the incubator until the test media and the two control media had been prepared. The test media consisted of a bile acid or bile acid derivative (50 μM) being tested for its ability to inhibit extracellular matrix degradation and concomitant recombinant human Interleukin rhIL-1α (5 ng/mL) in fresh DMEM solution. The control media were identical to the test media, except that the first control media lacked rhIL-1α and the second control media lacked an inhibitor, i.e. a bile acid or bile acid derivative. 250 μL of each of the test and control media were transferred to separate 96-well TC plates. Flamed forceps were used to transfer a disk from the incubator to each 96-well TC plates that had been filled with either the test media or one of the two control media.
The TC plates were then placed in the incubator and cultured for 3-4 days (initial incubation with rhIL-1α alpha takes at least 3 days to stimulate endogenous metalloproteinases). A 50 μL aliquot of media from each TC plate was saved and counted. The rest of the media was removed with a suction device.
The cartilage disks from each TC plate were also saved for counting. […]

[2] = tested on: chondrocytes; test: Chondrocyte Cell Culture Matrix Breakdown Assay (35S release, rhIL-1α stimulated); assay type: cell-based, calf; conditions: Bos taurus, Chondrocyte; for inhibition at 50 µM: read-out: percent inhibition, Cell Culture
Procedure: A cell culture assay was used to measure the ability of compounds to slow the degradation of the extracellular matrix by a metalloproteinase. This assay measured the amount ^35 S released from chondrocytes grown in a media with ^35 S labeled sodium sulfate. The cell culture assay was carried out as follows:
Two or three 1 to 3 week old calf joints were obtained from an abattoir. The proximal end of the shank was at about 4-5" long to facilitate immobilization in the holder. The joint was kept cool and transported on ice. The exterior of the intact joints was washed well with a suitable anti-microbial soap, rinsed clean with warm water, rinsed in betadine and then finally rinsed with 70% ethanol. Up to this point all steps were done in a manner to ensure that the joint was kept as clean as possible. All subsequent steps were performed in a sterile field (i.e., in a Edgeguard laminar flow tissue culture hood). The joint was immobilized and the synovial fluid was aspirated with a needle and syringe. The joint was then cut open to expose the articular cartilage using a #21 scalpel. Using locking hemostats, forceps and a #15 scalpel, the cartilage was excised in full thickness pieces. Care was taken not to cut too deep because bleeding would have occurred if the subchondral bone, was penetrated. The cartilage pieces were placed into a 50 mL centrifuge tube containing 25 mL of Delbecco's phosphate buffered saline (D-PBS) supplemented with 1% antibiotic solution (penicillin, streptomycin and fungizone; GIBCO/BRL). The slices from each joint were then placed into separate 50 mL centrifuge tubes. The D-PBS was decanted and replaced with 25 mL of fresh D-PBS supplemented with antibiotics and subsequently agitated gently.
The cartilage pieces were transferred to a fresh 50 mL centrifuge tube and rinsed once more with 25 mL of D-PBS minus antibiotics. An enzymatic digestion solution containing 1 mg/mL of hyaluronidase in serum-free 1:1 DMEM/Ham's F-12 (DMEM/F12) was prepared. This solution was filter sterilized with […] Milex--GV filter and kept on ice until ready to use. The cartilage pieces were digested with approximately 5 mL of hyaluronidase solution per joint for 2×15 minutes at 37° C. in the 50 mL centrifuge tube with gentle agitation at the 15 minute mark. This procedure removed residual hyaluronic acid from the surface of the chips. The enzymatic digestion solution was then aspirated and the cartilage pieces were rinsed with 25 mL of D-PBS.
A second enzymatic digestion solution containing 2.5 mg trypsin and 2 mg collagenase P per mL serum-free DMEM/F12 was prepared. This solution was also filter sterilized with a […] Millex--GV filter and kept on ice until ready to use. The cartilage pieces were digested with approximately 5 mL of trypsin: collagenase solution per joint for 2×15 minutes at 37° C. in the 50 mL centrifuge tube with gentle agitation at the 15 minute mark. This procedure removed the synovial fibroblasts and any adherent connective tissue from the surface of the chips. The enzymatic digestion solution was then carefully removed and saved and the cartilage pieces were rinsed with 25 mL of D-PBS.
A third enzymatic solution containing 2 mgs of collagenase P (BMB) per mL serum-free DMEM/F12 was prepared. This solution was filter sterilized with a […] Millex--GV filter and kept on ice until ready to use. The pre-digested cartilage pieces were finally digested with approximately 20 mL of enzymatic digestion solution per joint for 5-6 hours at 37° C. in a Bellco stirring digestion flask, at which point the cartilage was fully digested away.
The enzymes in the synovial fibroblast and chondrocyte digest were neutralized by addition of an equal volume of DMEM/F12 supplemented with 5% fetal bovine serum. Fibroblasts were plated in DMEM at a cellular density of 6.6×10^3 cells per cm^2. […]

[3] = at 50 μM, rhIL-1α 5 ng/mL, 3-4 days
[4] = at 50 μM, rhIL-1α 1 ng/ml, 22-24 hours

Row | Structure (SMILES) | inhibition at 50 µM [1, 3] [%] | inhibition at 50 µM [2, 4] [%] | IC50 ([2]; rhIL-1α 1 ng/ml, 22-24 hours) [µM] | inhibition at 50 µM [1] [%] | inhibition at 50 µM [2] [%]
1 | CCOC(=O)[C@H](CS)NC(=O)[C@H](Cc1ccccc1)NC(=O)CC[C@@H](C)[C@H]1CC[C@H]2[C@@H]3CC[C@@H]4C[C@H](O)CC[C@]4(C)[C@H]3CC[C@]12C [Compound 19, Lithocholyl-(L)-Phenylalanyl-(L)-Cysteine Ethyl Ester] | 32 | 4 | – | – | –
2 | C[C@H](CCC(=O)NOCc1ccccc1)[C@H]1CC[C@H]2[C@@H]3[C@H](O)C[C@@H]4C[C@H](O)CC[C@]4(C)[C@H]3CC[C@]12C [Compound 12, Chenodeoxycholyl-O-Benzylhyroxamate] | 6 | 64 | – | – | –
3 | C[C@H](CCC(=O)N[C@@H](Cc1ccccc1)C(=O)NO)[C@H]1CC[C@H]2[C@@H]3[C@H](O)C[C@@H]4C[C@H](O)CC[C@]4(C)[C@H]3CC[C@]12C [Compound 16, Chenodeoxycholyl-(L)-Phenylalanine Hydroxamic Acid] | 94 | 85 | – | – | –
4 | C[C@H](CCC(=O)N[C@@H](Cc1ccccc1)C(=O)NC1CCSC1=O)[C@H]1CC[C@H]2[C@@H]3CC[C@@H]4C[C@H](O)CC[C@]4(C)[C@H]3CC[C@]12C (some centres unmarked) [Compound 20, Lithocholyl-Phenylalanylhomocysteine Thiolactone] | -13 | 16 | – | – | –
5 | CC(C)C[C@H](NC(=O)CC[C@@H](C)[C@H]1CC[C@H]2[C@@H]3[C@H](O)C[C@@H]4C[C@H](O)CC[C@]4(C)[C@H]3CC[C@]12C)C(=O)NO [Compound 10, Chenodeoxycholyl-(L)-Leucine Hydroxamic Acid] | 85 | – | 80 | – | –
6 | CC(C)C[C@H](NC(=O)CC[C@@H](C)[C@H]1CC[C@H]2[C@@H]3CC[C@@H]4C[C@H](O)CC[C@]4(C)[C@H]3CC[C@]12C)C(=O)NO [Compound 9, Lithocholyl-(L)-Leucine Hydroxamic Acid] | 84 | 43 | – | – | –
7 | C[C@H](CCC(=O)O)[C@H]1CC[C@H]2[C@@H]3CC[C@@H]4C[C@H](O)CC[C@]4(C)[C@H]3CC[C@]12C [Compound 1, Lithocholic acid, reference compound] | 68 | 95 | – | – | –
8 | C[C@H](CCC(=O)NO)[C@H]1CC[C@H]2[C@@H]3CC[C@@H]4C[C@H](O)CC[C@]4(C)[C@H]3CC[C@]12C [Compound 13, Lithocholylhydroxamic Acid] | 44 | – | 20 | – | –
9 | C[C@H](CCC(=O)NCCC[N+](C)(C)CCCS(=O)(=O)[O-])[C@H]1CC[C@H]2[C@@H]3[C@H](O)C[C@@H]4C[C@H](O)CC[C@]4(C)[C@H]3C[C@H](O)[C@]12C [Compound 8, 3-[(3-cholamidopropyl)dimethylammonio)-1-propanesulfonate, reference compound] | – | – | – | -120 | 2
10 | C[C@H](CCC(=O)N[C@@H](Cc1ccccc1)C(=O)NO)[C@H]1CC[C@H]2[C@@H]3CC[C@@H]4C[C@H](O)CC[C@]4(C)[C@H]3CC[C@]12C [Compound 15, Lithocholyl-(L)-Phenylalanine Hydroxamic Acid] | 54 | 38 | – | – | –
